Assay results: patent EP0037780A1, “Alcoxy-propanol amines useful as medicines, and process for their preparation” (PIERRE FABRE S.A., priority 1980, dated 1981)
≈ marks a conversion by molar mass, not a printed value. Read-outs that look alike come from different tables or passages of the source.

Experiment: Solubility
Format: physicochemical
Details: read-out: Solubilité
Text: Chromatographie sur plaque : • - support : gel de silice 60 F 254 Merck • - solvant : chloroforme - méthanol - ammoniaque 80/18/2 • - révélation : iode • - Rf : 0,65 Solubilité : soluble à 5 % dans l'eau.
Chromatographie sur plaque : • - support : gel de silice 60 F 254 Merck • - solvant : chloroforme - méthanol - ammoniaque 80/18/2 • - révélation : iode • - Rf : 0,6 Solubilité : soluble à 1 % dans l'eau.
Chromatographie sur plaque : • - support : gel de silice 60 F 254 Merck • - solvant : chloroforme - méthanol - ammoniaque 80/18/2 • - révélation : Réactif de Dragendorf et iode • - Rf : 0,65 Solubilité : soluble à 2 % dans une solution aqueuse d'acide chlorhydrique (0,1 N) et à 1 % dans le propylène glycol.

Row | Structure (SMILES) | solubility (0.1 n aqueous hydrochloric acid, dans une solution aqueuse d'acide chlorhydrique (0,1 N)) | solubility (propylene glycol, organic solvent or mixture, dans le propylène glycol) | solubility (water, dans l'eau)
1 | CC(C)=CCCC(C)CCOCC(O)CNC(C)C (stereo not shown) [Exemple 3, isopropylamino-3 (diméthyl-3,7 octène-6 yloxy)-1 propanol-2] | 20 mg/mL (≈ 73.7 mM) | 10 mg/mL (≈ 36.8 mM) | –
2 | CCCCOCC(O)CNC(C)(C)C (stereo not shown) [Exemple 2, tertiobutylamino-3 butoxy-1 propanol-2] | – | – | 10 mg/mL (≈ 49.2 mM)
3 | CCCCOCC(O)CNC(C)C (stereo not shown) [Exemple 1, isopropylamino-3 butoxy-1 propanol-2] | – | – | 50 mg/mL (≈ 264 mM)
